According to US10835542B2, “9-aminomethyl minocycline compounds and use thereof in treating community-acquired bacterial pneumonia (CABP)” (Paratek Pharmaceuticals, Inc., priority 2016, dated 2020):

COc1c(N2C[C@@H]3CCCN[C@@H]3C2)c(F)cc2c(=O)c(C(=O)O)cn(C3CC3)c12 [Moxifloxacin, moxifloxacin, reference compound]
Total number of deaths (ITT population): 4
Subjects who died (Safety population): 4 (1.0) n (%)
Subjects with at least one Adverse Event (AE) (Safety population): 200 (51.5) n (%)
Subjects with at least one Drug-Related Serious TEAE (Safety population): 2 (0.5) n (%)
Subjects with at least one Drug-Related TEAE (Safety population): 69 (17.8) n (%)
Subjects with at least one Serious TEAE (Safety population): 26 (6.7) n (%)
Subjects with at least one Serious TEAE Leading to Death (Safety population): 4 (1.0) n (%)
Subjects with at least one Serious TEAE Leading to Premature Discontinuation of Test Article (Safety population): 11 (2.8) n (%)
Subjects with at least one Severe TEAE (Safety population): 26 (6.7) n (%)
Subjects with at least one TEAE (Safety population): 188 (48.5) n (%)
Subjects with at least one TEAE Leading to Dose Interruption (Safety population): 0 n (%)
Subjects with at least one TEAE Leading to Premature Discontinuation of Study (Safety population): 9 (2.3) n (%)
Subjects with at least one TEAE Leading to Premature Discontinuation of Test Article (Safety population): 27 (7.0) n (%)
TEAE leading to study drug discontinuation: Diarrhoea (Safety population): 1 (0.3) n (%)
TEAE leading to study drug discontinuation: Dyspepsia (Safety population): 1 (0.3) n (%)
TEAE leading to study drug discontinuation: Gastrointestinal Disorders (Safety population): 2 (0.5) n (%)
TEAE leading to study drug discontinuation: Nausea (Safety population): 0 n (%)
TEAE leading to study drug discontinuation: Vomiting (Safety population): 0 n (%)
TEAE: Alanine Aminotransferase Increased (Safety population): 18 (4.6) n (%)
TEAE: Aspartate Aminotransferase Increased (Safety population): 14 (3.6) n (%)
TEAE: Constipation (Safety population): 6 (1.5) n (%)
TEAE: Diarrhoea (Safety population): 31 (8.0) n (%)
TEAE: Dyspepsia (Safety population): 2 (0.5) n (%)
TEAE: Gamma-Glutamyltransferase Increased (Safety population): 8 (2.1) n (%)
TEAE: Headache (Safety population): 5 (1.3) n (%)
TEAE: Hypertension (Safety population): 11 (2.8) n (%)
TEAE: Insomnia (Safety population): 8 (2.1) n (%)
TEAE: Nausea (Safety population): 21 (5.4) n (%)
TEAE: Pseudomembranous Colitis (Safety population): 1 (0.3) n (%)
TEAE: Vomiting (Safety population): 6 (1.5) n (%)
Total Number of AEs (Safety population): 520
Total Number of TEAEs (Safety population): 461
